Drawing on patent US9783536B2, “Nitrogen-containing heterocyclic compound or salt thereof” (FUJIFILM Corporation, priority 2013, dated 2017), this text covers IC50 for nine compounds.

Each structure is given as a SMILES string. Bounds are passed on as bounds.

The target in one experiment is T1, human PI3Kα protein (Homo sapiens, UniProt P42336).
T1 construct: purchased Carna Biosciences, Inc; host or cells: baculovirus expression system
Put plainly: PI3Kα enzyme assay (ADP-Glo). The experiment is classed as biochemical. Particulars: read-out: PI3Kα enzyme inhibitory activity. In outline: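 Biotinylated human PI3Kα (baculovirus-expressed, 4.5 nmol/L) pre-incubated 15 min with compound in Tris-HCl pH 7.5, MgCl2, BSA; reaction 60 min at 25° C with 50 μmol/L PIP2 and 100 μmol/L ATP final. ADP quantified by ADP-Glo luminescence; IC50 calculated.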
In general terms: In ADP-Glo the light output rises with the ADP produced.

Experiment [1] concerns the target T2, GST fusion human ERK2 protein (Homo sapiens, UniProt P28482).
T2 construct: purchased Carna Biosciences, Inc; host or cells: E. coli expression system
Put plainly: ERK2 enzyme assay (1). The conditions noted are these: ERK2 enzyme assay (1); read-out: ERK2 enzyme inhibitory activity (1). The experiment is classed as biochemical. A digest of the protocol: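 IC50 derived from the proportion of phosphorylated 5-FAM peptide, separated from unphosphorylated peptide by microfluidic mobility shift. Compound was first preincubated 15 min at room temperature with 2.5 nmol/L kinase at pH 7.5, then 43.1 μmol/L ATP plus 4.25 μmol/L substrate reacted 120 min at 25 °C.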

For experiment [2], the target named is T2, GST fusion human ERK2 protein. Put plainly: ERK2 enzyme assay (2). Type of experiment: biochemical. The conditions noted are these: ERK2 enzyme assay (2); read-out: ERK2 enzyme inhibitory activity (2). In outline:
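IC50 values come from mobility-shift measurement of phosphorylated versus unphosphorylated 5-FAM peptide substrate after EDTA quench. Beforehand, compound and 1.25 nmol/L E. coli-expressed GST–human ERK2 stood 15 min at room temperature (pH 7.5), then 1 mmol/L ATP and 4.25 μmol/L substrate (final) were added for 120 min at 25 °C.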

The next experiment relates to CHO-K1 cells. Put plainly: CHO cell toxicity test. The conditions noted are these: Cricetulus griseus; CHO-K1 cells, 24 hours culture with compound, CellTiter-Glo; read-out: IC50 value (concentration at which the number of viable cells was suppressed to 50% or less). The experiment is classed as cell-based, Chinese hamster. A digest of the protocol:
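CHO-K1 cells were cultured 24 h, then exposed 24 h to compound at final 25.00 to 0.20 μmol/L in F-12 with 2% FCS. Viability read by CellTiter-Glo luminescence; inhibition % = 100 − (treated/untreated signal)×100.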
On the technique in general: ATP-based viability assays read luminescence as a measure of living cells.

T1 sequence (P42336 whole entry): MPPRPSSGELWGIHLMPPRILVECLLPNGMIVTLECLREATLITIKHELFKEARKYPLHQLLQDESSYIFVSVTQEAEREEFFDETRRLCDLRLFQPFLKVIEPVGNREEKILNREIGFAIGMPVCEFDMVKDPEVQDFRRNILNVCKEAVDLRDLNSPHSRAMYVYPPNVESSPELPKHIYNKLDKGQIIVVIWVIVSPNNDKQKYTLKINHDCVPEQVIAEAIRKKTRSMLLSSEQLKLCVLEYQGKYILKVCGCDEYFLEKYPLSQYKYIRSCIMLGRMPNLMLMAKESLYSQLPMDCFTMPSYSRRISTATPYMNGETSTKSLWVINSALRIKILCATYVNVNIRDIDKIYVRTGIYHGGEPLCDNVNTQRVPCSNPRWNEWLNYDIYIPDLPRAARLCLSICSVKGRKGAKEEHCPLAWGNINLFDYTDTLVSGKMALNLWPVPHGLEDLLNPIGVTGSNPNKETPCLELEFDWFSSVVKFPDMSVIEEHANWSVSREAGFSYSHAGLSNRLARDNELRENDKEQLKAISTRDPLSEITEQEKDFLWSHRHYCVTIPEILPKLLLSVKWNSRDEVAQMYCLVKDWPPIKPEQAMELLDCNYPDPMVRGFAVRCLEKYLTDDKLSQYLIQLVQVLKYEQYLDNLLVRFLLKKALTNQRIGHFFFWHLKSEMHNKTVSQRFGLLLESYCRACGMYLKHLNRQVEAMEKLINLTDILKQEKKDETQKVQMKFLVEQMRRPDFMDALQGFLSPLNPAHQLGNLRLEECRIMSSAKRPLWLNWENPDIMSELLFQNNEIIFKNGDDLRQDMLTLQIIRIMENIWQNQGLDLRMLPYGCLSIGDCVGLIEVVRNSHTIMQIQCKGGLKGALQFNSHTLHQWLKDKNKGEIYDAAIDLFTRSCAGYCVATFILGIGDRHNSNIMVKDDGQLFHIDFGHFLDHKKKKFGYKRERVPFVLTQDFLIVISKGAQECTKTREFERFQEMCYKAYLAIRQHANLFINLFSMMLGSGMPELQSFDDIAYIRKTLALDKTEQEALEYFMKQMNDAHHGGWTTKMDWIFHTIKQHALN
T1 sequence (P27986 whole entry partner): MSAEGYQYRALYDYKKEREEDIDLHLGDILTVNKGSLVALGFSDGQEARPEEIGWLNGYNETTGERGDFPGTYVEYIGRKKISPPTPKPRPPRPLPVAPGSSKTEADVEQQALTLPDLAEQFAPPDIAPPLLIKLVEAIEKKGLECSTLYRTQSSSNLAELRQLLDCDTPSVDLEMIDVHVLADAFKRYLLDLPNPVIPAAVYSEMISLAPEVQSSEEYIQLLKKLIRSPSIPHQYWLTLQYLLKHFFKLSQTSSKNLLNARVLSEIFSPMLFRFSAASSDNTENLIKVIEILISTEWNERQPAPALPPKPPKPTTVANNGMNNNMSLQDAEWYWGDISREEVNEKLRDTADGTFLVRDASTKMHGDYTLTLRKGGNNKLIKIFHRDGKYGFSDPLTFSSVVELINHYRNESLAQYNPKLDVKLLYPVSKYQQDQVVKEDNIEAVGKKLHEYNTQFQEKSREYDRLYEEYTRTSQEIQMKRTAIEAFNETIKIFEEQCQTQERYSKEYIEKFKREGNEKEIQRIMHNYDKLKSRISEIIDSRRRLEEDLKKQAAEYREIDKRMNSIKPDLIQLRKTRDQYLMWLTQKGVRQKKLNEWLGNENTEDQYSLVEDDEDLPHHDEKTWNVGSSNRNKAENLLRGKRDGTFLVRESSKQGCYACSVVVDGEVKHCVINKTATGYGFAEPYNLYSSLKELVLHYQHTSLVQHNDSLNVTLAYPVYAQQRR
T2 sequence (P28482 whole entry, the tested form may be a part): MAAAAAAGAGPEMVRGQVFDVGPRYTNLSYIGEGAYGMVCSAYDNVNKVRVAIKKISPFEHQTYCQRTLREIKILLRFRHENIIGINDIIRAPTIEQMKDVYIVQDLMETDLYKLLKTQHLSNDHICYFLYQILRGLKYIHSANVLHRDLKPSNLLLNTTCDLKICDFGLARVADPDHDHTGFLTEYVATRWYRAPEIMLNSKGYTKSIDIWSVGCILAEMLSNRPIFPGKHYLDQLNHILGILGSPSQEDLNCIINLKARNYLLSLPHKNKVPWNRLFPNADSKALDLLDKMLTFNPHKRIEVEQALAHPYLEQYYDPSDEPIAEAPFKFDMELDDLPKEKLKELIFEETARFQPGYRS

Turning to `COc1c(-c2cnn(C)c2)cnc2ccc(Nc3nnc(C4CCCC4)s3)nc12` [Example 0355, 5-cyclopentyl-N-(8-methoxy-7-(1-methyl-1H-pyrazol-4-yl)-1,5-naphthyridin-2-yl)-1,3,4-thiadiazole-2-amine], the IC50 at human PI3Kα protein is < 1 µM; in experiment [1] it was < 1 µM; in experiment [2], < 1 µM; in the experiment with CHO-K1 cells, ≥ 25 µM.
For `CC(C)c1nnc(Nc2ccc3ncc(-c4cnn(CCCN5CCCC5)c4)cc3n2)s1` [Example 0365], the IC50 at human PI3Kα protein was < 1 µM; in experiment [1], < 1 µM; in experiment [2], < 1 µM; with CHO-K1 cells, ≥ 25 µM.
As to `CC(C)c1cnnc(Nc2ccc3ncc(-c4cnn(CCCN5CCOCC5)c4)cc3n2)c1` [Example 0368], the IC50 on human PI3Kα protein is < 1 µM; in experiment [1], < 1 µM; in experiment [2] it was < 1 µM; with CHO-K1 cells, ≥ 25 µM.
Consider `CC(C)c1cnnc(Nc2ccc3ncc(-c4cnn(CCN5CCOCC5)c4)cc3n2)c1` [Example 0382, N-(5-isopropylpyridazin-3-yl)-7-(1-(2-morpholinoethyl)-1H-pyrazol-4-yl)-1,5-naphthyridine-2-amine], for which the IC50 at human PI3Kα protein is < 1 µM; in experiment [1], < 1 µM; in experiment [2], < 1 µM; in the experiment with CHO-K1 cells, ≥ 25 µM.
Take `Cc1nn(CCCN2CCOCC2)cc1-c1cnc2ccc(Nc3cc(C(C)C)cnn3)nc2c1` [Example 0384, N-(5-isopropylpyridazin-3-yl)-7-(3-methyl-1-(3-morpholinopropyl)-1H-pyrazol-4-yl)-1,5-naphthyridine-2-amine]: the IC50 was < 1 µM on human PI3Kα protein, < 1 µM in experiment [1], < 1 µM in experiment [2] and ≥ 25 µM in the experiment with CHO-K1 cells.
For `CC1(C)COc2nnc(Nc3ccc4ncc(-c5cnn(CCCN6CCCC6)c5)cc4n3)cc21` [Example 0401, 5,5-Dimethyl-N-(7-(1-(3-(pyrrolidin-1-yl)propyl)-1H-pyrazol-4-yl)-1,5-naphthyridin-2-yl)-5,6-dihydrofuro[2,3-c]pyridazine-3-amine], the IC50 is < 1 µM at human PI3Kα protein, < 1 µM in experiment [1], < 1 µM in experiment [2] and ≥ 25 µM with CHO-K1 cells.
As to `CN(C)c1cnnc(Nc2ccc3ncc(-c4cnn(CCCN5CCCC5)c4)cc3n2)c1` [Example 0403, N^5,N^5-dimethyl-N^3-(7-(1-(3-(pyrrolidin-1-yl)propyl)-1H-pyrazol-4-yl)-1,5-naphthyridin-2-yl)pyridazine-3,5-diamine], the IC50 on human PI3Kα protein is < 1 µM; in experiment [1], < 1 µM; in experiment [2], < 1 µM; in the experiment on CHO-K1 cells it was ≥ 25 µM.
For `CC(C)c1cnnc(Nc2ccc3ncc(-c4cnn(CCCO)c4)cc3n2)c1` [Example 0473], the IC50 on human PI3Kα protein is < 1 µM; in experiment [1] it was < 1 µM; in experiment [2], < 1 µM; with CHO-K1 cells, ≥ 25 µM.
Turning to `CC(C)c1cnnc(Nc2ccc3ncc(-c4cnn(CCC(C)(C)O)c4)cc3n2)c1` [Example 0474], the IC50 on human PI3Kα protein was < 1 µM; in experiment [1], < 1 µM; in experiment [2], < 1 µM; in the experiment with CHO-K1 cells, ≥ 25 µM.
